This note sets out measurements from US11160788B2, “Caspase-1 inhibition and uses thereof for prevention and treatment of neurological conditions” (priority 2016, dated 2021).

The assay concerns J20 mice. Kind of assay: Barnes maze spatial memory, treatment of symptomatic J20 mice. Type of assay: in vivo, mouse. An excerpt:
FIG. 8: VX-765 treatment restores cognitive function in J20 mice. (a) Experimental paradigm. Intraperitoneal vehicle-injected wild type (WT+Vehicle; n=13) and J20 mice (J20+Vehicle: n=9), and VX-765-injected J20 mice (J20+VX-765: n=9) mice were behaviourally assessed at 5 different time-points: baseline before treatment (baseline untreated J20 were grouped together; n=18), after 3 IP injections/wk of VX-765 or vehicle (Treatment 1), after 6 additional injections over 2 weeks (Treatment 2), after 4-week Washout period, and after an additional 3 injections in one week (Treatment 3). Mice were sacrificed at 8 months of age after Treatment 3 (b) NOR Discrimination index (Treatment main effect, F(2,20)=85.8, p<0.0001; Time main effect, F(4,80)=4.188, p=0.0039; Treatment×Time interaction, F(8,80)=[…], two-way repeated-measures ANOVA, Dunnett's post-hoc compared to J20+Vehicle). (c) Distance traveled during Open Field task. Data analyzed by repeated measures two-way ANOVA (Treatment main effect, F(2,19)=11.47, p=0.0005; Treatment×Time interaction, F(8,76)=5.69, p<0.0001, two-way repeated-measures ANOVA, Dunnett's post-hoc compared to J20+Vehicle). (d-i) Barnes maze analysis. Learning acquisition (d,g), probe test primary latency and errors (e,h), and target hole preference (f,i); # of pokes of each hole labelled +1 to +9 to the right or −1 to −9 to the left of the target hole during the probe) after Treatment 2 (d-f) and Washout (g-i). Probe tests were analyzed (Treatment 2 primary latency, F(2,52)=5.879, p=0.0050; Treatment 2 primary errors, F(2,52)=9.998, p=0.0002; Washout primary latency, F(2,22)=4.076, p=0.0312; Washout primary errors, F(2,22)=10.84, p=0.0005, ANOVA, Tukey's post-hoc). * p<0.05, ***p<0.001, ****p<0.0001.
FIG. 9: VX-765 dose-dependently restores cognitive function in J20 mice. (a) NOR discrimination index after VX-765 dose response at Treatment 1 (F(3,24)=20.42, p<0.0001, ANOVA, Dunnett's post-hoc compared to J20 0 mg/kg), Treatment 2 (F(3,23)=12.83, p<0.0001, ANOVA, Dunnett's post-hoc compared to J20 0 mg/kg), Washout, and Treatment 3 (F(3,23)=8.828, p=0.0004, ANOVA, Dunnett's post-hoc compared to J20 0 mg/kg). Note that the 50 mg/kg dose was not performed at the same time and is placed here for comparison purposes only. Nevertheless, the discrimination index was stable between experiments (b-g) Barnes maze Treatment 2 (b-d) and Washout (e-g) learning acquisition (b,e), probe test (c,f), and target hole preference (d,g). For T2 primary errors, F(2,14)=5.69, p=0.0155, ANOVA, Dunnett's post-hoc compared to J20+Vehicle. * p<0.05, ***p<0.001, ****p<0.0001.
Anxiety and hyperactivity are monitored in an open-field paradigm, episodic memory with the NOR, spatial memory with the Barnes maze, and short or long term working memory with the Y maze before and after treatments. Repeated measures are acceptable for the NOR, Barnes and Y maze^2-4.
Five month old mice were behaviorally and longitudinally assessed before treatment (baseline), after 3 injections/week of 50 mg/kg VX-765 (Treatment 1; T1), after an additional 2 weeks of injections (Treatment 2; T2), after 4 weeks without treatment (Washout; WO), and after 3 more injections/week (Treatment 3; T3) before sacrificing the mice at 8 months of age as illustrated in FIG. 8a. […] Results were consistent across individual mice (FIG. 15c). […] However, during the probe test, the primary latency, primary errors (FIG. 8e) and the ability to find the target (T) escape hatch (FIG. 8f) were clearly impaired in vehicle-injected J20 compared to WT littermates. […] After WO, all mice performed well during the training phase of the Barnes maze (FIG. 8g). […] J20 mice performance in the Y maze working memory task was consistently low but not always statistically different from WT or treated J20 mice (FIG. 15e).

On to `CCO[C@@H]1OC(=O)C[C@@H]1NC(=O)[C@@H]1CCCN1C(=O)[C@@H](NC(=O)c1ccc(N)c(Cl)c1)C(C)(C)C` [VX-765, (S)-1-((S)-2-{[1-(4-amino-3-chloro-phenyl)-methanoyl]-amino}-3,3-dimethyl-butanoyl)-pyrrolidine-2-carboxylic acid ((2R,3S)-2-ethoxy-5-oxo-tetrahydro-furan-3-yl)-amide], for which, under “10 mg/kg, after Treatment 2”, the “Barnes maze ability to recognize the escape hatch in probe test” value is listed as “improved in their ability to recognize the escape hatch” and the “Barnes maze primary latency” value is on record as “remained impaired in primary latency”. The “Barnes maze primary latency and errors” value (10 mg/kg, after washout) is “No significant difference”. Under “25 mg/kg, after Treatment 2”, the “Barnes maze ability to recognize the escape hatch in probe test” value is “improved in their ability to recognize the escape hatch”, the “Barnes maze primary errors” value is on record as “decreased” and the “Barnes maze primary latency” value was “remained impaired in primary latency”. Besides, under “25 mg/kg, after washout”, the “Barnes maze primary latency and errors” value is recorded as “No significant difference”; the “Barnes maze recognition of the position of the escape hatch” value is recorded as “retained the ability to recognize the position of the escape hatch”. The “Barnes maze probe test: primary latency, primary errors, finding target hatch” value (50 mg/kg IP, after Treatment 2) is reported as “eliminated these spatial memory deficits”. For the setting “50 mg/kg IP, after washout”, the “Barnes maze ability to find the target hatch” value is given as “performed better than vehicle-injected J20 mice”; the “Barnes maze probe test primary latency and errors” value is “appeared normal in primary latency and errors”.
